Consider one compound from PMC6934184, “Selective DNA-PKcs inhibition extends the therapeutic index of localized radiotherapy and chemotherapy” (The Journal of Clinical Investigation, 2019).

For this assay, the target named is T1, PIK3C3 (hVPS34) (Homo sapiens, UniProt Q8NEB9).
T1 construct: purchased Thermo Fisher Scientific (Life Technologies) SelectScreen
Nature of the assay: SelectScreen Adapta. In kind it is biochemical. As to conditions: ATP Km app. The protocol:
The in vitro kinase selectivity of NU5455 was determined using the SelectScreen Broad Assay Panel (Thermo Fisher Scientific) involving activity and binding assays (Supplemental Table 1). […] Class IA PI3Ks were measured using the p85α subunit.
Kinase [ATP] % Assay Kinase [ATP] % Assay Kinase [ATP] % Assay Kinase [ATP] % Assay
DNA-PK Km app 98.3 Z LATS2 n/a 4.7 L KIT D820E n/a 1.3 L GSK3B (GSK3 beta) Km app -2.5 Z
PIK3C3 (hVPS34) Km app 85.9 A PRKCZ (PKC zeta) Km app 4.7 Z GRK1 n/a 1.3 L BMPR2 n/a -2.5 L
PIK3C2B (PI3K-C2 beta) 10 28.9 A FGFR1 Km app 4.7 Z BRSK2 n/a 1.2 L CDC42 BPB (MRCKB) Km app -2.5 Z
SNF1LK2 Km app 26.6 Z MINK1 Km app 4.6 Z NUAK1 (ARK5) Km app 1.2 A AMPK (A2/B2/G2) n/a -2.6 L
HCK Km app 18.0 Z CSF1R (FMS) Km app 4.3 Z CDK9/cyclin K n/a 1.0 L PRKG1 Km app -2.7 Z
NEK2 Km app 17.8 Z CSNK1G3 (CK1 gamma 3) Km app 4.2 Z NUAK2 n/a 1.0 L KIT T670E n/a -2.8 L
ALK Km app 17.3 Z STK32C (YANK3) n/a 4.2 L CDK2/cyclin O n/a 0.9 L ERBB4 (HER4) Km app -2.8 Z
FGFR3 K650M n/a 16.5 L STK22D (TSSK1) Km app 4.2 Z CAMKK2 (CaMKK beta) n/a 0.9 L PLK4 n/a -2.8 L
SIK3 n/a 16.1 L TAOK3 (JIK) n/a 4.2 L FGFR3 Km app 0.9 Z GRK7 Km app -3.0 Z
LYN A Km app 15.2 Z RPS6KA4 (MSK2) Km app 4.2 Z ULK2 n/a 0.9 L MAPKAPK2 Km app -3.1 Z
BMPR1B (ALK6) n/a 14.5 L PTK2B (FAK2) Km app 4.2 Z KIT D816V n/a 0.9 L FGFR4 Km app -3.1 Z
INSRR (IRR) Km app 14.1 Z CLK2 Km app 4.1 Z CAMK1 (CaMK1) 10 0.8 A CASK n/a -3.1 L
PLK2 Km app 14.1 Z STK24 (MST3) Km app 4.1 Z PTK6 (Brk) Km app 0.7 Z GRK5 Km app -3.2 Z
PRKACA (PKA) Km app 14.0 Z CAMK1D (CaMKI delta) Km app 4.1 Z CAMK2B (CaMKII beta) Km app 0.7 Z EGFR (ErbB1) T790M Km app -3.3 Z
EIF2AK2 (PKR) n/a 13.3 L INSR Km app 4.1 Z ACVR1 (ALK2) n/a 0.7 L PAK4 Km app -3.3 Z
PRKX Km app 12.5 Z IRAK1 Km app 4.0 A ABL1 H396P n/a 0.6 L DAPK3 (ZIPK) Km app -3.4 Z
FGR Km app 12.1 Z SRC N1 Km app 3.9 Z MERTK (cMER) A708S n/a 0.6 L RET M918T n/a -3.5 L
CLK1 Km app 11.7 Z SRPK2 Km app 3.9 Z MAPKAPK5 (PRAK) Km app 0.6 Z PRKCQ (PKC theta) Km app -3.7 Z
MARK3 Km app 11.4 Z RPS6KA6 (RSK4) Km app 3.8 Z AKT1 (PKB alpha) Km app 0.5 Z CAMKK1 (CAMKKA) n/a -3.8 L
PDGFRB (PDGFR beta) Km app 11.0 Z GRK6 Km app 3.7 Z NTRK3 (TRKC) Km app 0.4 Z FLT3 D835Y Km app -3.9 Z
PRKCN (PKD3) Km app 10.7 Z PKN1 (PRK1) Km app 3.6 Z ZAP70 Km app 0.3 Z ROCK2 Km app -4.1 Z
STK16 (PKL12) n/a 10.5 L MAP3K8 (COT) 100 3.5 Z CSNK1A1 (CK1 alpha 1) Km app 0.3 Z CHUK (IKK alpha) Km app -4.2 A
FES (FPS) Km app 10.4 Z FLT4 (VEGFR3) Km app 3.5 Z MYLK (MLCK) n/a 0.2 L AXL Km app -4.2 Z
ABL1 Km app 10.4 Z GRK4 Km app 3.5 Z MKNK2 (MNK2) n/a 0.2 L PIM2 Km app -4.3 Z
MUSK Km app 10.3 Z FRK (PTK5) Km app 3.4 Z AMPK (A1/B1/G3) n/a 0.2 L PAK1 Km app -4.4 Z
MAPK1 (ERK2) Km app 10.1 Z FYN A n/a 3.3 L MAP3K2 (MEKK2) n/a 0.1 L BMPR1A (ALK3) n/a -4.4 L
BRAF 100 9.9 Z CDK1/cyclin A2 n/a 3.3 L CDK8/cyclin C n/a 0.1 L STK4 (MST1) Km app -4.4 Z
IGF1R Km app 9.7 Z KIT V559D T670I n/a 3.1 L MARK2 Km app 0.1 Z PRKCH (PKC eta) Km app -4.6 Z
MAPK14 (p38 alpha) Km app 9.7 Z SPHK2 10 3.1 A ICK n/a 0.0 L SGKL (SGK3) Km app -4.6 Z
LCK Km app 9.6 Z FGFR3 G697C n/a 3.1 L FGFR2 Km app 0.0 Z PI4KB (PI4K beta) Km app -4.7 A
MAPK11 (p38 beta) Km app 9.5 Z RIPK2 n/a 3.1 L AKT2 (PKB beta) Km app 0.0 Z PRKCE (PKC epsilon) Km app -4.9 Z
SRC Km app 9.5 Z PAK6 Km app 3.0 Z EPHB2 Km app -0.1 Z PHKG1 Km app -5.0 Z
CHEK1 (CHK1) Km app 9.3 Z LYN B Km app 3.0 Z TGFBR2 n/a -0.1 L PDGFRA D842V Km app -5.0 Z
CAMK2D (CaMKII delta) Km app 9.3 Z DAPK2 n/a 2.9 L TEK (Tie2) Km app -0.1 Z PRKG2 (PKG2) Km app -5.1 Z
PLK1 Km app 9.2 Z EPHA4 Km app 2.9 Z AURKA (Aurora A) Km app -0.1 Z TYRO3 (RSE) Km app -5.1 Z
RET Y791F Km app 9.2 Z PIK3CG (p110 gamma) Km app 2.9 A KIT D816H n/a -0.2 L TAOK2 (TAO1) Km app -5.1 Z
FLT3 Km app 9.1 Z HIPK1 (Myak) Km app 2.8 Z KIT N822K n/a -0.2 L EPHB4 Km app -5.3 Z
MAPK10 (JNK3) 100 9.0 Z ADRBK2 (GRK3) Km app 2.8 Z PRKACG (PRKAC gamma) n/a -0.2 L AURKC (Aurora C) Km app -5.4 Z
CSNK2A2 (CK2 alpha 2) Km app 8.7 Z STK17B (DRAK2) n/a 2.7 L TEK (TIE2) Y1108F n/a -0.3 L JAK1 Km app -5.7 Z […]

T1 sequence (Q8NEB9 whole entry): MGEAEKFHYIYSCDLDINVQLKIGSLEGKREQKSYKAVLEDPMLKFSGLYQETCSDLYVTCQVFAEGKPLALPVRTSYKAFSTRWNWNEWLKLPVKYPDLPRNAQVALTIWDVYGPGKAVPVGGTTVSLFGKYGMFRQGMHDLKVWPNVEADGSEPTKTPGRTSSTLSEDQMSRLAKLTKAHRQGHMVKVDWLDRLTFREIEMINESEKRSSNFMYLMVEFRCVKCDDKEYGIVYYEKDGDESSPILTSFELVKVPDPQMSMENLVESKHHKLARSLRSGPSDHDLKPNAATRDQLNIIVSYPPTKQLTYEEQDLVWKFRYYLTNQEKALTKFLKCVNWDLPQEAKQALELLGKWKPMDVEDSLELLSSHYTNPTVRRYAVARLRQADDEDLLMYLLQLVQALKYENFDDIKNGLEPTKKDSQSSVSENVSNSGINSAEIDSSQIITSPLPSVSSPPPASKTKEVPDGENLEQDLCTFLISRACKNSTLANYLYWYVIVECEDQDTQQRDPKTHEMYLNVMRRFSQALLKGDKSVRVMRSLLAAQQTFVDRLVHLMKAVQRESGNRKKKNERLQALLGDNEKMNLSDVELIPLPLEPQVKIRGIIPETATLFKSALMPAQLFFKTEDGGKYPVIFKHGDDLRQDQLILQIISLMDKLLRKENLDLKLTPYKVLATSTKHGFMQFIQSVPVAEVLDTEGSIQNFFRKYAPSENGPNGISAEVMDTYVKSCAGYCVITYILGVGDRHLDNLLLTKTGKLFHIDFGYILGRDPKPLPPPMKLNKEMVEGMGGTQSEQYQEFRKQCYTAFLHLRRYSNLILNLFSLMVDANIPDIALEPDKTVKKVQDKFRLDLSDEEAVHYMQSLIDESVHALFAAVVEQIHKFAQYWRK

Usually % inhibition stands for the change of the read-out against control, counted positive when it falls. Low readings indicate a response near the control, high ones a response far below the control. Broadly, the inhibition is the relative decrease from the control value, in per cent. `CN(C(=O)CN1CCOCC1)c1ccc2sc3c(-c4cccc5c(=O)cc(N6CC7CCC(C6)O7)oc45)cccc3c2c1` [NU5455] displayed an inhibition at 1 µM of 85.9%. Besides, where the note is “1 µM”, the “% inhibition” value is 86%.
